Patent US7759331B2, “Pyridine-containing macroheterococylic compounds as kinase inhibitors” (Janssen Pharmaceutica NV, priority 2006, dated 2010)

Assays:
Assay in all cases: Protein kinase selectivity panel
Type in all cases: biochemical
Settings in all cases: 1.0 μM compound, 10 μM ATP
PKCι(h) = target: T1, PKCι(h) (Homo sapiens, UniProt P41743)
T1 sequence (P41743 1-596): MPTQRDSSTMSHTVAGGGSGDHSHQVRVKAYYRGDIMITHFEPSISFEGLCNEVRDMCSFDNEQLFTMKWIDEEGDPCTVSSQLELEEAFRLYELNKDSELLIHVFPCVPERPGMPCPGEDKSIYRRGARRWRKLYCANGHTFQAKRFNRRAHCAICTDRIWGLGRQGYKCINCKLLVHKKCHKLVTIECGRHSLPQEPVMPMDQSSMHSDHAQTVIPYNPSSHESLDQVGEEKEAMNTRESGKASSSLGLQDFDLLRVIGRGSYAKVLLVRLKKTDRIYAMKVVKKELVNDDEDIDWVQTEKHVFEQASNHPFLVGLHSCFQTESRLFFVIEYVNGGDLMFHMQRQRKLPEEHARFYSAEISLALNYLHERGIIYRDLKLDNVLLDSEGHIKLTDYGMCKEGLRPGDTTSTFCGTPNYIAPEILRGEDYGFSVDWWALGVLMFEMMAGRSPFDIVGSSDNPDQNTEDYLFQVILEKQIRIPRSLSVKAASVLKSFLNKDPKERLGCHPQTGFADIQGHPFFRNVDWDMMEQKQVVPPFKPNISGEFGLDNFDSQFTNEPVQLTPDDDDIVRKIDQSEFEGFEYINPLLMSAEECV
Description: (§1) Protein kinase selectivity assays were performed as described in the scientific literature (Davies, S. P., et al., Biochem. J. 2000, 351, 95-105). Briefly, protein kinases were assayed for their ability to phosphorylate the appropriate peptide/protein substrates in the presence of 1.0 μM compound. Assays were done using 10 μM ATP and were linear with respect to time. The protein kinase selectivity assays were performed by Upstate Cell Signaling Solutions using Upstate's KinaseProfiler™ Selectivity Screening Service.

CSK(h) = CSK(h) (Homo sapiens, UniProt P41240)
Description: as §1

CHK2(h) = CHK2(h) (Homo sapiens, UniProt O96017)
Sequence of CHK2(h) (O96017 whole entry): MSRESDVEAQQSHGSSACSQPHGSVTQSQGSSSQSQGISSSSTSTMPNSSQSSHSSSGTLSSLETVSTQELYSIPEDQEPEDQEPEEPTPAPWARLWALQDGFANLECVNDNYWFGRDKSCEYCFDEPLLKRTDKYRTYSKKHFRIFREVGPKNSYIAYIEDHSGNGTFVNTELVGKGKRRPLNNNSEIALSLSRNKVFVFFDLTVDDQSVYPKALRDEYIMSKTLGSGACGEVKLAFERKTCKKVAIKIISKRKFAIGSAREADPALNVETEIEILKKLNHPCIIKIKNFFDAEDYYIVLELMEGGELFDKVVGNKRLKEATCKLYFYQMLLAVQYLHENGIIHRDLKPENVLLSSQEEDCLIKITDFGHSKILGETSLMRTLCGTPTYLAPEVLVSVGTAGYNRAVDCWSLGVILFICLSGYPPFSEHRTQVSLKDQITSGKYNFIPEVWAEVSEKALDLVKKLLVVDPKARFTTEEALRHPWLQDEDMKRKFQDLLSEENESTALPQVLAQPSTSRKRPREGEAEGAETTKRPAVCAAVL
Description: as §1

MAPK2(m) = MAPK2(m) (Mus musculus, UniProt P63085)
Sequence of MAPK2(m) (P63085 whole entry): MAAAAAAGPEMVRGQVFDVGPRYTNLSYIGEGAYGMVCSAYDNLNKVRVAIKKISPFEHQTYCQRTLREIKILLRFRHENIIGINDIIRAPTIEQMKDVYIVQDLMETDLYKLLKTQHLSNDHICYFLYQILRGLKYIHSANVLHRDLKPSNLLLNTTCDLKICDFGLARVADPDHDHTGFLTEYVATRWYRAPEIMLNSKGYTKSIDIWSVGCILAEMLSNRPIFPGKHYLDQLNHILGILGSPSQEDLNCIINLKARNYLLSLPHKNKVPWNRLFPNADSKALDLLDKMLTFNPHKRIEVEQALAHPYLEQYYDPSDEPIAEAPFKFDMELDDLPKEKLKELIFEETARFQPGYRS
Description: as §1

CDK6/cyclinD3(h) = CDK6/cyclinD3(h) (Homo sapiens, UniProt Q00534)
Description: as §1

PAK2(h) = PAK2(h) (Homo sapiens, UniProt Q13177)
Description: as §1

Arg(m) = Arg(m) (Mus musculus, UniProt Q4JIM5)
Sequence of Arg(m) (Q4JIM5 whole entry): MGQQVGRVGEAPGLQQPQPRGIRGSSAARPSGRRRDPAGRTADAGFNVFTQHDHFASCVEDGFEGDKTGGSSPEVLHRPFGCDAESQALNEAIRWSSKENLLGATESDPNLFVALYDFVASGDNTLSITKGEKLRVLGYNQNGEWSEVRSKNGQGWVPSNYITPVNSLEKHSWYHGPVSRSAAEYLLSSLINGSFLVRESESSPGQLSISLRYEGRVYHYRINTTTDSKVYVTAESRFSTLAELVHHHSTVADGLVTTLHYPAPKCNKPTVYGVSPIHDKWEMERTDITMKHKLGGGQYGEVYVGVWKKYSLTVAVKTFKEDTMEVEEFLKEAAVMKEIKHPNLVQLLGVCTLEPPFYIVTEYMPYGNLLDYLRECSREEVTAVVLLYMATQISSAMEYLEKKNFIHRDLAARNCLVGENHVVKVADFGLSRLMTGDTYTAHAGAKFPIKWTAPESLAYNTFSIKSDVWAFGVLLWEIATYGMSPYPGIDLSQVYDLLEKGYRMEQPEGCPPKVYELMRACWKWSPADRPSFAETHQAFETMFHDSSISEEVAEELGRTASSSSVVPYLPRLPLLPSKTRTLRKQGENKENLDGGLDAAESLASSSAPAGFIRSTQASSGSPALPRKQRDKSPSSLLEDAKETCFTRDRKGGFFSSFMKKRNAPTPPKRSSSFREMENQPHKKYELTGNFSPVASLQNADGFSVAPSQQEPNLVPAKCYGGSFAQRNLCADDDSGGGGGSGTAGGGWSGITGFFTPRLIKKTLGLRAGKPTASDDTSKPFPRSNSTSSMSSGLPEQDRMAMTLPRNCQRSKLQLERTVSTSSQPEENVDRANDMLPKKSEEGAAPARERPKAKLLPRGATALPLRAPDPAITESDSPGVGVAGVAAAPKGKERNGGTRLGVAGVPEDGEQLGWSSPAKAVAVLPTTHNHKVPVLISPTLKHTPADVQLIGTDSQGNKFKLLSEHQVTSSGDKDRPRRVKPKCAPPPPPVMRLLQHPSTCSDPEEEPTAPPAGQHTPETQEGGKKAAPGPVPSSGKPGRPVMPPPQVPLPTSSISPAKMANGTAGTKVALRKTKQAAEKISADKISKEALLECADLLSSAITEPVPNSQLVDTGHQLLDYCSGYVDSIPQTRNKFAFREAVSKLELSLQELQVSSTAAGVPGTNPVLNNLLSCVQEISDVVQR
Description: as §1

EGFR(h) = EGFR(h) (Homo sapiens, UniProt P00533)
Description: as §1

MAPKAP-K2(h) = MAPKAP-K2(h) (Homo sapiens, UniProt P49137)
Description: as §1

MAPK2(h) = MAPK2(h) (Homo sapiens, UniProt P28482)
Sequence of MAPK2(h) (P28482 whole entry): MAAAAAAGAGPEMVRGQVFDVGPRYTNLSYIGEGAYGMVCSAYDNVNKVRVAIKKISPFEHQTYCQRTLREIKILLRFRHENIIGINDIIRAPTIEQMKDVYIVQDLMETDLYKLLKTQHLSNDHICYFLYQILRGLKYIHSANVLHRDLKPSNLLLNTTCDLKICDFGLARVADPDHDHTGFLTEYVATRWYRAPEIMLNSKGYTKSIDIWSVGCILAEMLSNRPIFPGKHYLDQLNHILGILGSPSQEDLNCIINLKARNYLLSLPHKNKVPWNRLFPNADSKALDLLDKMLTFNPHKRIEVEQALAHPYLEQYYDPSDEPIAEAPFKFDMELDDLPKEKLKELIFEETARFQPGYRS
Description: as §1

NEK2(h) = target: T2, NEK2(h) (Homo sapiens, UniProt P51955)
T2 sequence (P51955 1-445): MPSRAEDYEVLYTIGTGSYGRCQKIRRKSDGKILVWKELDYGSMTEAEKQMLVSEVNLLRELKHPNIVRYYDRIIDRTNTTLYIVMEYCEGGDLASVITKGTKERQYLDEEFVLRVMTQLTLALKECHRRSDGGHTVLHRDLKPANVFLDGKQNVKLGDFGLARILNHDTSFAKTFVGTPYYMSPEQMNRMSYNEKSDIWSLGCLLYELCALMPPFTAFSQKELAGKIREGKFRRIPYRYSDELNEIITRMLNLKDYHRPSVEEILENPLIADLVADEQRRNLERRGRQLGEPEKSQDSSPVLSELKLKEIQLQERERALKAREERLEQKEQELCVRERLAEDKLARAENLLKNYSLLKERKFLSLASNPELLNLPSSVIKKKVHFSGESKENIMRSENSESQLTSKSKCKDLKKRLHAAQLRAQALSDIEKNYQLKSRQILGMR
Description: as §1

PKCα(h) = PKCα(h) (Homo sapiens, UniProt P17252)
Description: as §1

ALK(h) = ALK(h) (Homo sapiens, UniProt Q9UM73)
Description: as §1

PKBα(h) = PKBα(h) (Homo sapiens, UniProt P31749)
Sequence of PKBα(h) (P31749 whole entry): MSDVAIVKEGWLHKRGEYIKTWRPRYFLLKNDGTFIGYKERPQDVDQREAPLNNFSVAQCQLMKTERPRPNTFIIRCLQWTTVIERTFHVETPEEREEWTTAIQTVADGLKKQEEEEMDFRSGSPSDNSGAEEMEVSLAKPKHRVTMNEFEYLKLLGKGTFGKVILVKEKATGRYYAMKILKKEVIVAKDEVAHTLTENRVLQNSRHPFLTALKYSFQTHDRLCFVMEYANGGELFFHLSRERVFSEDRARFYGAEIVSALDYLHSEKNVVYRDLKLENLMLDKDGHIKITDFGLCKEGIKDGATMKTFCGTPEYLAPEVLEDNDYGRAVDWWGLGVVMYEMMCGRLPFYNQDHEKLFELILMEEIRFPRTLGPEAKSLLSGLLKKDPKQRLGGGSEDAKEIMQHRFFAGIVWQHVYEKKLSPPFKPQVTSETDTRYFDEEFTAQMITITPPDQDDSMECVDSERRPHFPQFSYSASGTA
Description: as §1

Abl(m) = Abl(m) (Mus musculus, UniProt P00520)
Sequence of Abl(m) (P00520 whole entry): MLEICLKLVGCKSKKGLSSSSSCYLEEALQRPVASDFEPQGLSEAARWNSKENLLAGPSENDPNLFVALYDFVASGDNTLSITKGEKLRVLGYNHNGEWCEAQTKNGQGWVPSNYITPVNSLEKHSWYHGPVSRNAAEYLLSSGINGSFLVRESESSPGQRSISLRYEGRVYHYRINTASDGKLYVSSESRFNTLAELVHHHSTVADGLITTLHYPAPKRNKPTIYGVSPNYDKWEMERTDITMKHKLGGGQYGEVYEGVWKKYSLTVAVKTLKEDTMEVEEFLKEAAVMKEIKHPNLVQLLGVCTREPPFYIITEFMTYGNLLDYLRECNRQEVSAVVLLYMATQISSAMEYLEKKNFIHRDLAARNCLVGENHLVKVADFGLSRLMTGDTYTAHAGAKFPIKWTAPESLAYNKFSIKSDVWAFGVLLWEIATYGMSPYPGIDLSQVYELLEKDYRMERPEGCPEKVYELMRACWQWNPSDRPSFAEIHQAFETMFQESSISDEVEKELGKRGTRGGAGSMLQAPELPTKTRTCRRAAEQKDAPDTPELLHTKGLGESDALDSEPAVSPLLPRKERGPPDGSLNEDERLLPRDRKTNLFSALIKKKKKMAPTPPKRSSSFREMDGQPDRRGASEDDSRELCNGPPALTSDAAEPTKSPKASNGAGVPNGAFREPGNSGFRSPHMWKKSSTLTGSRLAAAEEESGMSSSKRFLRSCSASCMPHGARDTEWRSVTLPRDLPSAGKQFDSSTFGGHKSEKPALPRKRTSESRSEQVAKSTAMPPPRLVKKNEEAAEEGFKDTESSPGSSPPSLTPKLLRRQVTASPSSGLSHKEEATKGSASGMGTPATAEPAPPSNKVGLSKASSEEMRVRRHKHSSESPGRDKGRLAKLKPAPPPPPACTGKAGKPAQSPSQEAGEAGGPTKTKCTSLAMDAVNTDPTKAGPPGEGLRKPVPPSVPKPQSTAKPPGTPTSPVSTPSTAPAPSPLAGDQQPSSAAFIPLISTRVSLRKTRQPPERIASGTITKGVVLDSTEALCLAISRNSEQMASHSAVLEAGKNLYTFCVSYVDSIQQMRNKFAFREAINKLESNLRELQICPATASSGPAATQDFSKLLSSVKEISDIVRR
Description: as §1

CDK2/cyclinE(h) = CDK2/cyclinE(h) (Homo sapiens, UniProt P24941)
Description: as §1

Lck(h) = Lck(h) (Homo sapiens, UniProt P06239)
Description: as §1

JNK3(h) = JNK3(h) (Homo sapiens, UniProt P53779)
Description: as §1

SAPK2a(h) = SAPK2a(h) (Homo sapiens, UniProt Q16539)
Sequence of SAPK2a(h) (Q16539 whole entry): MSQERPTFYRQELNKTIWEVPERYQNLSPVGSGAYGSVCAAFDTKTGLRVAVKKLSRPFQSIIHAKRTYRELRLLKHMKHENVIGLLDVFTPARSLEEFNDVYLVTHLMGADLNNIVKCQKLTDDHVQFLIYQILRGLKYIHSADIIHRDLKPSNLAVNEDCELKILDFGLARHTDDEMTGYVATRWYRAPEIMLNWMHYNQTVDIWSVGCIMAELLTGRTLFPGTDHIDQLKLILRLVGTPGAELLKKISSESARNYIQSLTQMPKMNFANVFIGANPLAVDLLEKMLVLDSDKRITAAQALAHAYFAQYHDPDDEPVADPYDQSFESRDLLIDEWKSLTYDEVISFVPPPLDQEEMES
Description: as §1

GSK3α(h) = GSK3α(h) (Homo sapiens, UniProt P49840)
Sequence of GSK3α(h) (P49840 whole entry): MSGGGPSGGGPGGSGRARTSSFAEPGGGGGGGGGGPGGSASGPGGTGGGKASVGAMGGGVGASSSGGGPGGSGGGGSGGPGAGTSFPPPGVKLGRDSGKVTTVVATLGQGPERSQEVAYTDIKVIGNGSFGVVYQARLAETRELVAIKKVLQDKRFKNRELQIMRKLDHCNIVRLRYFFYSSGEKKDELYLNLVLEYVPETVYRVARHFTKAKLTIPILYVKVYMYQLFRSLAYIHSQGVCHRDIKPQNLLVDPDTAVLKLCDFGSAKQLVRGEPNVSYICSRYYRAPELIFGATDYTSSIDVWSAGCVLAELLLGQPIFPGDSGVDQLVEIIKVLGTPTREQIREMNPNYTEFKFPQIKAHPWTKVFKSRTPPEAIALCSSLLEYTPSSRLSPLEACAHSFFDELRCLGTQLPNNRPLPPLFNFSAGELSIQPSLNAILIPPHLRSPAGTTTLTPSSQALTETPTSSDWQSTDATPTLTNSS
Description: as §1

MKK7β(h) = target: T3, MKK7β(h) (Homo sapiens, UniProt O14733)
T3 sequence (O14733 1-419): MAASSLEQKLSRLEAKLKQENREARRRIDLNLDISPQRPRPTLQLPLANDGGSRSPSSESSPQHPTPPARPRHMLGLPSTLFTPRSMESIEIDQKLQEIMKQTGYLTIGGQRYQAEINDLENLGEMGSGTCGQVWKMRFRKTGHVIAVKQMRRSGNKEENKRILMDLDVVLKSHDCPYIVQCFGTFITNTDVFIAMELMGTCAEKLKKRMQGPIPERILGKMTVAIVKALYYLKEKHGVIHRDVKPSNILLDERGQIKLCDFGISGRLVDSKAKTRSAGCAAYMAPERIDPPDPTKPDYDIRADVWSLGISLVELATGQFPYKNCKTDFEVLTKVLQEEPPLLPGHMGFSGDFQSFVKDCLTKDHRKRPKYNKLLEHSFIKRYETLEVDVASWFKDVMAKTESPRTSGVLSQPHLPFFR
Description: as §1

CN(C)c1nc2ccc1CCCCn1cc(c3ccccc31)C1=C(C(=O)NC1=O)c1cn(c3ccccc13)CCC2 [Cpd 1, 31-(dimethylamino)-5,15,25,32-tetraazaheptacyclo[28.2.2.1^5,12.1^18,25.0^6,11.0^13,17.0^19,24]hexatriaconta-1(32),6,8,10,12(36),13(17),18(35),19,21,23,30,33-dodecaene-14,16-dione]
Activity at Protein Kinase Assays (% of control), PKCι(h) (PKCι(h)): 104 % of control
Activity at Protein Kinase Assays (% of control), CSK(h) (CSK(h)): 95 % of control
Activity at Protein Kinase Assays (% of control), CHK2(h) (CHK2(h)): 91 % of control
Activity at Protein Kinase Assays (% of control), MAPK2(m) (MAPK2(m)): 95 % of control
Activity at Protein Kinase Assays (% of control), CDK6/cyclinD3(h) (CDK6/cyclinD3(h)): 86 % of control
Activity at Protein Kinase Assays (% of control), PAK2(h) (PAK2(h)): 93 % of control
Activity at Protein Kinase Assays (% of control), Arg(m) (Arg(m)): 113 % of control
Activity at Protein Kinase Assays (% of control), EGFR(h) (EGFR(h)): 94 % of control
Activity at Protein Kinase Assays (% of control), MAPKAP-K2(h) (MAPKAP-K2(h)): 98 % of control
Activity at Protein Kinase Assays (% of control), MAPK2(h) (MAPK2(h)): 102 % of control
Activity at Protein Kinase Assays (% of control), NEK2(h) (NEK2(h)): 104 % of control
Activity at Protein Kinase Assays (% of control), PKCα(h) (PKCα(h)): 68 % of control
Activity at Protein Kinase Assays (% of control), ALK(h) (ALK(h)): 103 % of control
Activity at Protein Kinase Assays (% of control), PKBα(h) (PKBα(h)): 94 % of control
Activity at Protein Kinase Assays (% of control), Abl(m) (Abl(m)): 98 % of control
Activity at Protein Kinase Assays (% of control), CDK2/cyclinE(h) (CDK2/cyclinE(h)): 54 % of control
Activity at Protein Kinase Assays (% of control), Lck(h) (Lck(h)): 96 % of control
Activity at Protein Kinase Assays (% of control), JNK3(h) (JNK3(h)): 96 % of control
Activity at Protein Kinase Assays (% of control), SAPK2a(h) (SAPK2a(h)): 108 % of control
Activity at Protein Kinase Assays (% of control), GSK3α(h) (GSK3α(h)): 4 % of control
Activity at Protein Kinase Assays (% of control), MKK7β(h) (MKK7β(h)): 88 % of control

O=C1NC(=O)C2=C1c1cn(c3ccccc13)CCCc1ccc(c(N3CCCC3)n1)CCCn1cc2c2ccccc21 [Cpd 7, 31-pyrrolidin-1-yl-5,15,25,30-tetraazaheptacyclo[27.2.2.1^5,12.1^18,25.0^6,11.0^13,17.0^19,24]pentatriaconta-1(31),6,8,10,12(35),13(17),18(34),19,21,23,29,32-dodecaene-14,16-dione]
Activity at Protein Kinase Assays (% of control), PKCι(h) (PKCι(h)): 90 % of control
Activity at Protein Kinase Assays (% of control), CSK(h) (CSK(h)): 129 % of control
Activity at Protein Kinase Assays (% of control), CHK2(h) (CHK2(h)): 91 % of control
Activity at Protein Kinase Assays (% of control), MAPK2(m) (MAPK2(m)): 99 % of control
Activity at Protein Kinase Assays (% of control), CDK6/cyclinD3(h) (CDK6/cyclinD3(h)): 92 % of control
Activity at Protein Kinase Assays (% of control), PAK2(h) (PAK2(h)): 102 % of control
Activity at Protein Kinase Assays (% of control), Arg(m) (Arg(m)): 130 % of control
Activity at Protein Kinase Assays (% of control), EGFR(h) (EGFR(h)): 104 % of control
Activity at Protein Kinase Assays (% of control), MAPKAP-K2(h) (MAPKAP-K2(h)): 95 % of control
Activity at Protein Kinase Assays (% of control), MAPK2(h) (MAPK2(h)): 88 % of control
Activity at Protein Kinase Assays (% of control), NEK2(h) (NEK2(h)): 99 % of control
Activity at Protein Kinase Assays (% of control), PKCα(h) (PKCα(h)): 83 % of control
Activity at Protein Kinase Assays (% of control), ALK(h) (ALK(h)): 74 % of control
Activity at Protein Kinase Assays (% of control), PKBα(h) (PKBα(h)): 106 % of control
Activity at Protein Kinase Assays (% of control), Abl(m) (Abl(m)): 110 % of control
Activity at Protein Kinase Assays (% of control), CDK2/cyclinE(h) (CDK2/cyclinE(h)): 88 % of control
Activity at Protein Kinase Assays (% of control), Lck(h) (Lck(h)): 90 % of control
Activity at Protein Kinase Assays (% of control), JNK3(h) (JNK3(h)): 102 % of control
Activity at Protein Kinase Assays (% of control), SAPK2a(h) (SAPK2a(h)): 93 % of control
Activity at Protein Kinase Assays (% of control), GSK3α(h) (GSK3α(h)): 9 % of control
Activity at Protein Kinase Assays (% of control), MKK7β(h) (MKK7β(h)): 85 % of control

O=C1NC(=O)C2=C1c1cn(c3ccccc13)CCCc1cc(nc(N3CCCC3)c1)CCCn1cc2c2ccccc21 [Cpd 6, 20-pyrrolidin-1-yl-4,14,19,26-tetraazaheptacyclo[24.6.1.1^7,14.1^18,22.0^2,6.0^8,13.0^27,32]pentatriaconta-1(33),2(6),7(35),8,10,12,18(34),19,21,27,29,31-dodecaene-3,5-dione]
Activity at Protein Kinase Assays (% of control), PKCι(h) (PKCι(h)): 121 % of control
Activity at Protein Kinase Assays (% of control), CSK(h) (CSK(h)): 125 % of control
Activity at Protein Kinase Assays (% of control), CHK2(h) (CHK2(h)): 84 % of control
Activity at Protein Kinase Assays (% of control), MAPK2(m) (MAPK2(m)): 103 % of control
Activity at Protein Kinase Assays (% of control), CDK6/cyclinD3(h) (CDK6/cyclinD3(h)): 82 % of control
Activity at Protein Kinase Assays (% of control), PAK2(h) (PAK2(h)): 100 % of control
Activity at Protein Kinase Assays (% of control), Arg(m) (Arg(m)): 121 % of control
Activity at Protein Kinase Assays (% of control), EGFR(h) (EGFR(h)): 108 % of control
Activity at Protein Kinase Assays (% of control), MAPKAP-K2(h) (MAPKAP-K2(h)): 108 % of control
Activity at Protein Kinase Assays (% of control), MAPK2(h) (MAPK2(h)): 92 % of control
Activity at Protein Kinase Assays (% of control), NEK2(h) (NEK2(h)): 105 % of control
Activity at Protein Kinase Assays (% of control), PKCα(h) (PKCα(h)): 82 % of control
Activity at Protein Kinase Assays (% of control), ALK(h) (ALK(h)): 58 % of control
Activity at Protein Kinase Assays (% of control), PKBα(h) (PKBα(h)): 112 % of control
Activity at Protein Kinase Assays (% of control), Abl(m) (Abl(m)): 104 % of control
Activity at Protein Kinase Assays (% of control), CDK2/cyclinE(h) (CDK2/cyclinE(h)): 88 % of control
Activity at Protein Kinase Assays (% of control), Lck(h) (Lck(h)): 99 % of control
Activity at Protein Kinase Assays (% of control), JNK3(h) (JNK3(h)): 103 % of control
Activity at Protein Kinase Assays (% of control), SAPK2a(h) (SAPK2a(h)): 92 % of control
Activity at Protein Kinase Assays (% of control), GSK3α(h) (GSK3α(h)): 4 % of control
Activity at Protein Kinase Assays (% of control), MKK7β(h) (MKK7β(h)): 97 % of control
